These results are taken from patent US6696407B1, “Huntington's disease treatment comprising administering aldose reductase inhibitors to increase striatal CNTF” (The Regents of the University of California, priority 1997, dated 2004).

The test system of data set [1] is CNTF. Nature of the data set: Striatal CNTF levels by ELISA. Conditions: adult rats, oral 50 mg/kg/day for two months. The data set is classed as in vivo, rat. As for the experimental part: CNTF protein was determined with an ELISA that utilizes a monoclonal capture antibody which recognizes a non-C-terminal epitope on both rat and human CNTF (Regeneron, Tarrytown, N.Y.). The captured CNTF was recognized by a polyclonal rabbit anti-rCNTF reporter antibody. An alkaline phosphatase-tagged goat anti-rabbit IgG was used to generate the signal. In practice, 96-well Immulon plates were coated with capture antibody overnight, then blocked and washed. After overnight incubation of standards and samples, plates were washed and reporter antibody added. Following final washes, the reaction was developed using the GIBCO BRL ELISA amplification system substrate and amplifier. The reaction was stopped with 0.5 N H2SO4 and the plates read at two wavelengths (490 nm and 650 nm).
ARIs Toirestat and Ponalrestat were orally administered to adult rats at a dose of 50 mg/kg/day for two months as described in Example 1 and in Mizisin et al (1997) Diabetes 46: 647-652. For each rat, the left and right striatum were dissected and combined for homogenization in phosphate buffered saline. CNTF levels in extract preparations were then measured by ELISA, as described in Example 1. Four rats served as controls, and five rats each received Tolrestat and Ponalrestat. Five ELISA assays were run for each rat and one mean value derived for each rat.
In general terms: In an ELISA, binding on a coated surface is turned into a signal by an enzyme label.

For data set [2] the following is noted: Dittrich et al. (1994); cited from earlier work.

Entries after “also recorded” stand apart in the source; their conditions may differ.

With `COc1ccc2c(C(=S)N(C)CC(=O)O)cccc2c1C(F)(F)F` [Tolrestat, N-[[6-methoxy-5-(trifluoromethyl)-1-naphthalenyl]thioxomethyl]-N-methylglycine], the “Increase in striatal CNTF activity level versus control group” value in data set [1] is listed as “significantly increased; also recorded: approximately two-fold”.

B1: CNTF: member of the neuropoietic cytokine family, a protein of 200 amino acids (protein, UniProt P26441 1-200, looked up)
Ciliary neurotrophic factor: MAFTEHSPLTPHRRDLCSRSIWLARKIRSDLTALTESYVKHQGLNKNINLDSADGMPVASTDQWSELTEAERLQENLQAYRTFHVLLARLLEDQQVHFTPTEGDFHQAIHTLLLQVAAFAYQIEELMILLEYKIPRNEADGMPINVGDGGLFEKKLWGLKVLQELSQWTVRSIHDLRFISSHQTGIPARGSHYIANNKKM
For the molecule B1, the Plasma half-life in data set [2] was 2.9 min.
